Target: T1, Human complement C1s enzyme (Homo sapiens, UniProt P09871)
T1 construct: purified from human serum, Complement Technology, Inc; purchased Complement Technology, Inc; host or cells: human serum (plasma-derived native protein)
T1 sequence (P09871 438-688 limits assumed): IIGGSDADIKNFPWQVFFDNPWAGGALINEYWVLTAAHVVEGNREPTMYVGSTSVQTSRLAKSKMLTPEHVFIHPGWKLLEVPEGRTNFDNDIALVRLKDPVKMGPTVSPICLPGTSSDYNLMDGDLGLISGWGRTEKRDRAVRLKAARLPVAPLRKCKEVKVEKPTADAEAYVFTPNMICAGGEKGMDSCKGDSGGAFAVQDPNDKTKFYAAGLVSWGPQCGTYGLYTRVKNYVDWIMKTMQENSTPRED
T1 sequence (P09871 16-437 partner limits assumed): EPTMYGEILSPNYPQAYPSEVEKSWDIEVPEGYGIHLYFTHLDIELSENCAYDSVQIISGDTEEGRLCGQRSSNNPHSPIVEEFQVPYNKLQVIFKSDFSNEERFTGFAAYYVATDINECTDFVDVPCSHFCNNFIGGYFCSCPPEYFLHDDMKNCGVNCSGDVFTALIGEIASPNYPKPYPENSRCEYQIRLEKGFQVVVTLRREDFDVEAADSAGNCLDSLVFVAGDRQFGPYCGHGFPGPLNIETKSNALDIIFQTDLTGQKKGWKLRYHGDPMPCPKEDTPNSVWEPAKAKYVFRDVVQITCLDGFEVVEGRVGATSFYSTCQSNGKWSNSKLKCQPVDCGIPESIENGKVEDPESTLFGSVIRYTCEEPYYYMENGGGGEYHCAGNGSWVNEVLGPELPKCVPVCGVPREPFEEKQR
Assay: Human C1s enzyme assay
Assay type: biochemical
Conditions: human complement C1s enzyme 1.16 nM, substrate Z-L-Lys-SBzl, A405; read-out: IC50 (Stars)
Summary of the method: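 Serum-purified human C1s (1.16 nM final) preincubated 5 min at room temperature with compound in 50 mM Tris, 1 M NaCl, pH 7.5. Z-L-Lys-SBzl and DTNB added at 100 μM each; A405 recorded every 30 s. IC50 from nonlinear regression of reaction rates versus compound concentration.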

Structure (SMILES)	IC50
O=C(Cn1c(-c2cn[nH]c2)ncc(NCc2ccc3oc4ccccc4c3c2)c1=O)NCc1cc2cnccc2[nH]1 [Compound 312, N-((1H-pyrrolo[3,2-c]pyridine-2-yl)methyl)-2-(5-((dibenzo[b,d]furan-2-ylmethyl)amino)-6-oxo-2-(1H-pyrazol-4-yl)pyrimidin-1(6H)-yl)acetamide]	< 100 nM
Cc1cc(F)cc(C)c1Nc1cnc(-c2ccccc2)n(CC(=O)NCc2cc3cnccc3[nH]2)c1=O [Compound 244, N-((1H-pyrrolo[3,2-c]pyridin-2-yl)methyl)-2-(5-((4-fluoro-2,6-dimethylphenyl)amino)-6-oxo-2-phenylpyrimidin-1(6H)-yl)acetamide]	< 100 nM
O=C(Cn1c(-c2ccccc2)ncc(NC(=O)c2cccc(-c3ccco3)c2)c1=O)NCc1cc2cnccc2[nH]1 [Compound 102, N-(1-(2-(((1H-pyrrolo[3,2-c]pyridin-2-yl)methyl)amino)-2-oxoethyl)-6-oxo-2-phenyl-1,6-dihydropyrimidin-5-yl)-3-(furan-2-yl)benzamide]	< 100 nM
O=C(Cn1c(-c2ccccc2)ncc(NC(=O)c2ccc3oc4ccccc4c3c2)c1=O)NCc1cc2cnccc2[nH]1 [Compound 97, N-(1-(2-(((1H-pyrrolo[3,2-c]pyridin-2-yl)methyl)amino)-2-oxoethyl)-6-oxo-2-phenyl-1,6-dihydropyrimidin-5-yl)dibenzo [b,d]furan-2-carboxamide]	< 100 nM
O=C(Cn1c(-c2ccccc2)ncc(NCCCc2ccc(OC3CS(=O)(=O)C3)cc2)c1=O)NCc1cc2cnccc2[nH]1 [Compound 193, N-((1H-pyrrolo[3,2-c]pyridine-2-yl)methyl)-2-(5-((3-(4-((1,1-dioxidothietan-3-yl)oxy)phenyl)propyl)amino)-6-oxo-2-phenylpyrimidin-1(6H)-yl) acetamide]	< 100 nM
O=C(Cn1c(-c2ccccc2)ncc(NC(=O)CNC(=O)c2ccc(Oc3ccccc3)cc2)c1=O)NCc1cc2cnccc2[nH]1 [Compound 90, N-(2-((1-(2-(((1H-pyrrolo[3,2-c]pyridin-2-yl)methyl)amino)-2-oxoethyl)-6-oxo-2-phenyl-1,6-dihydropyrimidin-5-yl)-amino)-2-oxoethyl)-4-phenoxy-benzamide]	< 100 nM
O=C(Cn1c(-c2ccccc2)ncc(NCc2ccc3c(c2)-c2ccccc2C3(F)F)c1=O)NCc1cc2cnccc2[nH]1 [Compound 22, N-((1H-pyrrolo[3,2-c]pyridin-2-yl)methyl)-2-(5-(((9,9-difluoro-9H-fluoren-3-yl)meth-yl)amino)-6-oxo-2-phenyl-pyrimidin-1(6H)-yl)acetamide]	< 100 nM
O=C(Cn1c(-c2ccc(OC3CCOCC3)cc2)ncc(NCc2ccc3oc4ccccc4c3c2)c1=O)NCc1cc2cnccc2[nH]1 [Compound 280, N-((1H-pyrrolo[3,2-c]pyridin-2-yl)methyl)-2-(5-((dibenzo [b,d]furan-2-ylmethyl)amino)-6-oxo-2-(4-((tetrahydro-2H-pyran-4-yl)oxy)phenyl)pyrimi-din-1(6H)-yl)acetamide]	< 100 nM
O=C(Cn1c(-c2ccccc2)ncc(-c2nc3c(s2)CCCC3)c1=O)NCc1cc2cnccc2[nH]1 [Compound 30, N-((1H-pyrrolo[3,2-c]pyridin-2-yl)methyl)-2-(6-oxo-2-phenyl-5-(4,5,6,7-tetrahydrobenzo[d]thiazol-2-yl)pyrimidin-1(6H)-yl)acetamide]	> 1000 nM
O=C(Cn1c(-c2ccccc2)ncc(NC(=O)c2csc(-c3cccs3)n2)c1=O)NCc1cc2cnccc2[nH]1 [Compound 227, N-(1-(2-(((1H-pyrrolo[3,2-c]pyridin-2-yl)methyl)amino)-2-oxoethyl)-6-oxo-2-phenyl-1,6-dihydropyrimidin-5-yl)-2-(thiophen-2-yl)thiazole-4-carboxamide]	< 100 nM
O=C(Cn1c(-c2ccc(O[C@@H]3CO[C@H]4[C@@H]3OC[C@H]4O)cc2)ncc(NCCCc2ccccc2)c1=O)NCc1cc2cnccc2[nH]1 [Compound 125, N-((1H-pyrrolo[3,2-c]pyridine-2-yl)methyl)-2-(2-(4-(((3R,3aR,6R,6aR)-6-hydroxyhexahydrofuro[3,2-b]furan-3-yl)oxy)phenyl)-6-oxo-5-((3-phenylpropyl)amino)pyrimidin-1(6H)-yl)acetamide]	< 100 nM
O=C(Cn1c(-c2ccccc2)ncc(NCc2ccc3oc4ccccc4c3c2)c1=O)NCc1cc2cnccc2[nH]1 [Compound 32, N-((1H-pyrrolo[3,2-c]pyridin-2-yl)methyl)-2-(5-((dibenzo [b,d]furan-2-ylmethyl)amino)-6-oxo-2-phenylpyrimidin-1(6H)-yl)acetamide]	< 100 nM
C[C@H](Nc1cnc(-c2cnn(C)c2)n(CC(=O)NCc2cc3cnccc3[nH]2)c1=O)c1ccc2oc3ccccc3c2c1 [Compound 283, (S)-N-((1H-pyrrolo[3,2-c]pyr-idin-2-yl)methyl)-2-(5-((1-(dibenzo[b,d]furan-2-yl)ethyl)-amino)-2-(1-methyl-1H-pyr-azol-4-yl)-6-oxopyrimidin-1(6H)-yl)acetamide]	< 100 nM
O=C(Cn1c(-c2ccccc2)ncc(NC(=O)C2CCC(c3ccccc3)CC2)c1=O)NCc1cc2cnccc2[nH]1 (centres unmarked) [Compound 254, N-(1-(2-(((1H-pyrrolo[3,2-c]pyridin-2-yl)methyl)amino)-2-oxoethyl)-6-oxo-2-phenyl-1,6-dihydropyrimidin-5-yl)-4-phen-ylcyclohexane-1-carboxamide]	< 100 nM

More lines, now with the values ahead:

IC50	Structure (SMILES)
< 100 nM	C[C@@H](Nc1cnc(-c2ccccn2)n(CC(=O)NCc2cc3cnccc3[nH]2)c1=O)c1ccc(-c2ccccc2F)cc1 [Compound 447, (R)-N-((1H-pyrrolo[3,2-c]pyridin-2-yl)methyl)-2-(5-((1-(2′-fluoro-[1,1′-biphenyl]-4-yl)ethyl)amino)-6-oxo-2-(pyridin-2-yl)pyrimidin-1(6H)-yl)acetamide]
100 to 1000 nM	C[C@@H](Nc1cnc(N2CCCC(O)C2)n(CC(=O)NCc2cc3cnccc3[nH]2)c1=O)c1ccc2oc3ccccc3c2c1 (stereo partly drawn) [Compound 370, N-((1H-pyrrolo[3,2-c]pyridin-2-yl)methyl)-2-(5-(((R)-1-(dibenzo[b,d]furan-2-yl)ethyl)-amino)-2-(3-hydroxypiperidin-1-yl)-6-oxopyrimidin-1(6H)-yl)acetamide]
< 100 nM	C[C@@H](Nc1cnc(-c2ccccc2F)n(CC(=O)NCc2cc3cnccc3[nH]2)c1=O)c1ccc2c(c1)oc1ccccc12 [Compound 350, (R)—N-((1H-pyrrolo[3,2-c]pyridine-2-yl)methyl)-2-(5-((1-(dibenzo[b,d]furan-3-yl)ethyl)amino)-2-(2-fluorophenyl)-6-oxopyrimidin-1(6H)-yl)acetamide]
< 100 nM	Cn1cc(-c2ncc(NCc3cc4ccccc4o3)c(=O)n2CC(=O)NCc2cc3cnccc3[nH]2)cn1 [Compound 483, N-((1H-pyrrolo[3,2-c]pyridin-2-yl)methyl)-2-(5-((benzo-furan-2-ylmethyl)amino)-2-(1-methyl-1H-pyrazol-4-yl)-6-oxopyrimidin-1(6H)-yl)-acetamide]
> 1000 nM	C[C@@H](Nc1cnc(N2CC3(CCC3)C2)n(CC(=O)NCc2cc3cnccc3[nH]2)c1=O)c1ccc2oc3ccccc3c2c1 [Compound 373, (R)-N-((1H-pyrrolo[3,2-c]pyridin-2-yl)methyl)-2-(5-((1-(dibenzo[b,d]furan-2-yl)ethyl)-amino)-6-oxo-2-(2-azaspiro [3.3]heptan-2-yl)pyrimidin-1(6H)-yl)acetamide]
< 100 nM	O=C(Cn1c(N2CCCCC2)cnc(NCc2noc3ccccc23)c1=O)NCc1cc2cnccc2[nH]1 [Compound 480, N-((1H-pyrrolo[3,2-c]pyridin-2-yl)methyl)-2-(3-((benzo[d]isoxazol-3-ylmethyl)amino)-2-oxo-6-(piperidin-1-yl)pyrazin-1(2H)-yl)acetamide]
< 100 nM	C[C@@H](Nc1ncc(-c2ccccc2)n(CC(=O)NCc2cc3cnccc3[nH]2)c1=O)c1ccc2oc3ccccc3c2c1 [Compound 348, (R)-N-((1H-pyrrolo[3,2-c]pyridin-2-yl)methyl)-2-(3-((1-(dibenzo[b,d]furan-2-yl)ethyl)-amino)-2-oxo-6-phenylpyr-azin-1(2H)-yl)acetamide]
< 100 nM	C[C@@H](Nc1cnc(-c2cnn(C)c2)n(CC(=O)NCc2cc3cnccc3[nH]2)c1=O)c1ccc2oc3ccccc3c2c1 [Compound 328, (R)-N-((1H-pyrrolo[3,2-c]pyridin-2-yl)methyl)-2-(5-((1-(dibenzo[b,d]furan-2-yl)ethyl)-amino)-2-(1-methyl-1H-pyr-azol-4-yl)-6-oxopyrimidin-1(6H)-yl)acetamide]
< 100 nM	O=C(Cn1c(C2CC2)ncc(NCc2ccc3oc4ccccc4c3c2)c1=O)NCc1cc2cnccc2[nH]1 [Compound 330, N-((1H-pyrrolo[3,2-c]pyridin-2-yl)methyl)-2-(2-cyclopropyl-5-((dibenzo[b,d]furan-2-yl-methyl)amino)-6-oxopyrimi-din-1(6H)-yl)acetamide]
